Among the data in patent US9284283B2, “Macrocyclic compounds for modulating IL-17” (ENSEMBLE THERAPEUTICS CORPORATION, priority 2012, dated 2016) are IC50 values, retold here.

For experiment [1], the target named is T1, biotinylated human IL-17 (binding to IL17R/Fc) (Homo sapiens, UniProt Q16552).
T1 construct: purchased R&D Systems 317-ILB (IL-17, biotinylated); 177-IR (IL17R/Fc)
T1 sequence (Q16552 20-155 limits assumed): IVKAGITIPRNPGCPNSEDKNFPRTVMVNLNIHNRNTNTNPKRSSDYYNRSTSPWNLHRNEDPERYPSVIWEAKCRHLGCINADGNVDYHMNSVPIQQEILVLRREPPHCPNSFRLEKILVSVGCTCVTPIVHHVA
Nature of the experiment: IL-17 competition ELISA II (captured IL17R/Fc, biotinylated IL-17). The procedure, abridged:
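Anti-human IgG-coated plates captured IL17R/Fc (10 nM), then compound (5-fold dilutions from 1 μM) and biotinylated human IL-17 (20 nM stock) were added for 30 min at room temperature in PBST. Bound IL-17 detected by streptavidin-HRP/TMB at 450 nm. IC50 from 4-parameter logistic fit between no-competitor and blank controls.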
For orientation: In an ELISA, binding on a coated surface is turned into a signal by an enzyme label.

Experiment [2] concerns IL-17A induced secretion of IL-6 in primary human RASF cells. Nature of the experiment: Inhibition of IL17A induced secretion of IL6 in human rheumatoid arthritis synovial fibroblast (RASF) cells. The class given is cell-based. The note with it: Homo sapiens, Fibroblast. The method, then:
This assay was used to determine the extent of inhibition of IL-17A induced secretion of IL-6 in primary human rheumatoid synovial fibroblast (RASF) cells by compounds of the invention. IL-17A is known to stimulate IL-6 production in RASF cells.
Low passage (passage 2-8) Primary human RASF cells (Asterand) were maintained in maintenance medium. Cells were detached from flasks by tryptic digestion and the cell density of the suspension determined. To each well of a 96 well culture plate was added 100 μL of seeding medium containing 50,000 cells/mL and the plate incubated overnight in a humidified 37° C., 5% CO2 incubator. The medium was replaced with fresh assay medium and cells were incubated for additional 5 hours in a humidified 37° C., 5% CO2 incubator prior to stimulation with recombinant human IL-17A (“rhIL-17A”). Prior to addition to cells, rhIL-17A (30 ng/mL) in assay medium was incubated with either DMSO alone, compounds, or anti-IL17 receptor antibody (3 μg/mL) for 1 hour at 37° C. The final concentration of DMSO in all samples was 0.25%. The final concentration of compounds varied from 0.03 μM to 25 μM.
Immediately before stimulation, cells were washed once with fresh assay medium. Then, 100 μL of the test samples was added in triplicate wells and the plates incubated for 20 hours in a humidified 37° C., 5% CO2 incubator. The assay medium from each well was collected and the IL-6 concentration in cell culture supernatants was determined by ELISA either immediately or after storage at −20° C.
A water-soluble tetrazolium salt (WST1) viability assay was immediately performed on the cells after the conditioned medium was collected using a WST1 reagent purchased from Roche. The concentration of IL-6 obtained from ELISA was normalized by the WST1 data.

Turning to `O=C1CC2(CCCC2)CC(=O)N[C@H](Cc2ccc(NC(=O)[C@H](Cc3ccccc3Cl)NC(=O)Oc3ccccc3)cc2)C(=O)NCCOCCOCCN1` [Compound 571], the IC50 (in general, the concentration that inhibits the measured activity by half) in experiment [1] is below 100 nM; in experiment [2], 1000 to 10000 nM.

For the compound `O=C1CC2(CCCC2)CC(=O)N[C@H](Cc2ccc(NC(=O)[C@H](Cc3ccccc3Cl)NC(=O)c3cccnc3)cc2)C(=O)NCCCCCCCCN1` [Compound 442], the IC50 in experiment [1] is below 100 nM; in experiment [2], 1000 to 10000 nM.

As for `O=C1CC2(CCCC2)CC(=O)N[C@H](Cc2ccc(NC(=O)[C@H](Cc3ccccc3Cl)NC(=O)Cc3ccc(F)cc3)cc2)C(=O)N[C@H](C2CCCCC2)C(=O)NCCCCCN1` [Compound 425], the IC50 in experiment [1] is below 100 nM; in experiment [2], 100 to 1000 nM.

For the compound `C[C@H]1NC(=O)[C@@H](Cc2ccc(NC(=O)[C@H](Cc3ccccc3Cl)NC(=O)Cc3ccc(N(C)C)cc3)cc2)NC(=O)CC2(CCCC2)CC(=O)N(C)CCOCCN(C)C1=O` [Compound 584], the IC50 is below 100 nM in experiment [1] and 1000 to 10000 nM in experiment [2].

As for `C[C@H]1NC(=O)[C@@H](Cc2ccc(NC(=O)[C@H](Cc3ccccc3Cl)NC(=O)Cc3ccc(F)cc3)cc2)NC(=O)CC2(CCCC2)CC(=O)NCCCCCN(C)C1=O` [Compound 470], the IC50 in experiment [1] is below 100 nM; in experiment [2], 100 to 1000 nM.

For the compound `O=C1CNC(=O)[C@@H](Cc2ccc(NC(=O)[C@H](Cc3ccc(F)cc3Cl)NC(=O)Cc3ccc(CO)cc3)cc2)NC(=O)CC2(CCCC2)CC(=O)NCCCCCN1` [Compound 408], the IC50 in experiment [1] was below 100 nM; in experiment [2], 100 to 1000 nM.

As to `O=C1CNC(=O)[C@@H](Cc2ccc(NC(=O)[C@H](Cc3ccccc3Cl)NC(=O)Cc3ccc(NC(=O)CNCc4ccccc4)cc3)cc2)NC(=O)CC2(CCCC2)CC(=O)NCCCCCN1` [Compound 405], the IC50 is below 100 nM in experiment [1] and 100 to 1000 nM in experiment [2].

On to `C[C@H]1NC(=O)[C@@H](Cc2ccc(NC(=O)[C@@H](NC(=O)Cc3ccc(N(C)C)cc3)C3CCCCC3)cc2)NC(=O)CC2(CCCC2)CC(=O)N(C)CCCCCN(C)C1=O` [Compound 601], for which the half-maximal inhibitory concentration (IC50) in experiment [1] is below 100 nM; in experiment [2], 1000 to 10000 nM.

In the case of `CN(CCOc1ccc(CC(=O)N[C@@H](Cc2ccccc2Cl)C(=O)Nc2ccc(C[C@H]3NC(=O)CC4(CCCC4)CC(=O)NCCCCCNC(=O)[C@@H](Cc4ccccc4)NC3=O)cc2)cc1)Cc1ccccc1` [Compound 438], the half-inhibitory concentration (IC50) in experiment [1] is below 100 nM; in experiment [2] it was 100 to 1000 nM.

For the compound `O=C1CC2(CCCC2)CC(=O)N[C@H](Cc2ccc(NC(=O)[C@H](Cc3ccc(F)cc3Cl)NC(=O)Cc3ccc(F)cc3)cc2)C(=O)NCCOCCOCCN1` [Compound 502], the IC50 in experiment [1] was below 100 nM; in experiment [2], 1000 to 10000 nM.

As for `C[C@H]1NC(=O)[C@@H](Cc2ccc(NC(=O)[C@H](Cc3ccccc3Cl)NC(=O)Cc3ccc(N(C)C)cc3)cc2)NC(=O)CC2(CCCC2)CC(=O)NCCCCCNC1=O` [Compound 552], the IC50 in experiment [1] and in experiment [2] was below 100 nM throughout.

For `C[C@H]1NC(=O)[C@@H](Cc2ccc(NC(=O)[C@H](Cc3ccccc3Cl)NC(=O)Cc3ccc(F)cc3)cc2)NC(=O)CC2(CCCC2)CC(=O)N(C)CCN(C)CCN(C)C1=O` [Compound 539], the IC50 is below 100 nM in experiment [1] and 1000 to 10000 nM in experiment [2].

For `O=C1CC2(CCCC2)CC(=O)N[C@H](Cc2ccc(NC(=O)[C@H](Cc3ccccc3Cl)NC(=O)Cc3ccc(OCCN4CCOCC4)cc3)cc2)C(=O)N[C@H](Cc2ccccc2)C(=O)NCCCCCN1` [Compound 439], the IC50 is below 100 nM in experiment [1] and 100 to 1000 nM in experiment [2].

As for `Cc1ccccc1C[C@H](NC(=O)Cc1ccc(F)cc1)C(=O)Nc1ccc(C[C@H]2NC(=O)CC3(CCCC3)CC(=O)NCCOCCOCCNC2=O)cc1` [Compound 478], the IC50 in experiment [1] is below 100 nM; in experiment [2] it was 1000 to 10000 nM.

As to `C[C@H]1NC(=O)[C@@H](Cc2ccc(NC(=O)[C@H](Cc3ccccc3Cl)NC(=O)Cc3ccc(F)cc3)cc2)NC(=O)CC2(CCCC2)CC(=O)N(C)CCCCCN(C)C1=O` [Compound 488], the concentration for half-maximal inhibition (IC50) in experiment [1] is below 100 nM; in experiment [2], 1000 to 10000 nM.

Consider `O=C1CC2(CCCC2)CC(=O)N[C@H](Cc2ccc(NC(=O)[C@H](Cc3ccccc3Cl)NC(=O)Cc3ccc(CO)cc3)cc2)C(=O)N[C@H](Cc2cccnc2)C(=O)NCCCC[C@@H](C(=O)O)N1` [Compound 657], for which the IC50 in experiment [1] and in experiment [2] was below 100 nM throughout.

`C[C@H]1NC(=O)[C@@H](Cc2ccc(NC(=O)[C@H](Cc3ccccc3Cl)NC(=O)C3(c4ccc(F)cc4)CC3)cc2)NC(=O)CC2(CCCC2)CC(=O)NCCCCCNC1=O` [Compound 427]: the IC50 in experiment [1] is below 100 nM; in experiment [2] it was 1000 to 10000 nM.

Regarding `C[C@H]1NC(=O)[C@@H](Cc2ccc(NC(=O)[C@H](Cc3ccccc3Cl)NC(=O)C(=O)c3ccccc3)cc2)NC(=O)CC2(CCCC2)CC(=O)NCCCCCNC1=O` [Compound 549], the IC50 in experiment [1] and in experiment [2] was below 100 nM each time.

As for `CN1CCCCCN(C)C(=O)[C@@H](CCC(N)=O)NC(=O)[C@@H](Cc2ccc(NC(=O)[C@H](Cc3ccccc3Cl)NC(=O)C(F)(F)c3ccccc3)cc2)NC(=O)CC2(CCCC2)CC1=O` [Compound 645], the IC50 in experiment [1] was below 100 nM; in experiment [2], 100 to 1000 nM.

In the case of `CN1CCNC(=O)CC2(CCCC2)CC(=O)N[C@H](Cc2ccc(NC(=O)[C@H](Cc3ccccc3Cl)NC(=O)Cc3ccccc3)cc2)C(=O)NCC1` [Compound 399], the IC50 is below 100 nM in experiment [1] and 1000 to 10000 nM in experiment [2].

Turning to `O=C1CC2(CCCC2)CC(=O)N[C@H](Cc2ccc(NC(=O)[C@H](Cc3ccccc3Cl)NC(=O)Cc3ccc(CO)cc3)cc2)C(=O)N[C@@H](CO)C(=O)NCCCC[C@@H](C(=O)O)N1` [Compound 455], the IC50 in experiment [1] and in experiment [2] was below 100 nM each time.

Take `CN(C)c1ccc(CC(=O)N[C@@H](Cc2ccccc2Cl)C(=O)Nc2ccc(C[C@H]3NC(=O)CC4(CCCC4)CC(=O)NCCOCCOCCNC3=O)cc2)cc1` [Compound 553]: the values for the IC50 in experiment [1] and in experiment [2] were below 100 nM and 100 to 1000 nM, respectively.

Consider `C[C@H]1NC(=O)[C@@H](Cc2ccc(NC(=O)[C@H](Cc3ccccc3Cl)NC(=O)[C@H](O)c3ccccc3)cc2)NC(=O)CC2(CCCC2)CC(=O)NCCCCCNC1=O` [Compound 551], for which the concentration for half-maximal inhibition (IC50) in experiment [1] was below 100 nM; in experiment [2] it was 1000 to 10000 nM.

As for `C[C@H]1NC(=O)[C@@H](Cc2ccc(NC(=O)[C@H](Cc3ccccc3Cl)NC(=O)C(F)(F)c3ccccc3)cc2)NC(=O)CC2(CCCC2)CC(=O)NCCCCCNC1=O` [Compound 434], the concentration for half-maximal inhibition (IC50) in experiment [1] was below 100 nM; in experiment [2], 100 to 1000 nM.

As for `CN1CCCCCN(C)C(=O)[C@@H](CCC(N)=O)NC(=O)[C@@H](Cc2ccc(NC(=O)[C@@H](NC(=O)Cc3ccc(N(C)C)cc3)C3CCCCC3)cc2)NC(=O)CC2(CCCC2)CC1=O` [Compound 626], the IC50 is below 100 nM in experiment [1] and 100 to 1000 nM in experiment [2].

Turning to `C[C@H]1NC(=O)[C@@H](Cc2ccc(NC(=O)[C@H](Cc3ccccc3Cl)NC(=O)Cc3ccc(F)cc3)cc2)NC(=O)CC2(CCCC2)NC(=O)CCNC(=O)CCNC1=O` [Compound 593], the 50% inhibitory concentration (IC50) in experiment [1] was below 100 nM; in experiment [2], 100 to 1000 nM.

For the compound `C[C@H]1NC(=O)[C@@H](Cc2ccc(NC(=O)[C@H](Cc3ccccc3Cl)NC(=O)C3(c4ccc(F)cc4)CC3)cc2)NC(=O)CC2(CCCC2)CC(=O)N[C@H](C(=O)O)CCCCNC1=O` [Compound 513], the half-inhibitory concentration (IC50) was below 100 nM in experiment [1] and 100 to 1000 nM in experiment [2].
